# Measurements: PMC10709440, “High-throughput ligand profile characterization in novel cell lines expressing seven heterologous insect olfactory receptors for the detection of volatile plant biomarkers” (Scientific Reports, 2023)
# Where “and” joins values, the source holds several entries; their conditions need not be identical. Equal values may be shown once. Read-outs that look alike come from different tables or passages of the source.
# How the values were obtained:
# Drosophila OR10a = biological target: T1, Drosophila OR10a (Drosophila melanogaster, UniProt Q9VYZ1); assay: Calcium ion fluorescence (GCaMP6) assay, OR10a stable HEK293 cell line; type: cell-based
# T1 construct: expressed in transfected cells
# T1 sequence (Q9VYZ1 1-406): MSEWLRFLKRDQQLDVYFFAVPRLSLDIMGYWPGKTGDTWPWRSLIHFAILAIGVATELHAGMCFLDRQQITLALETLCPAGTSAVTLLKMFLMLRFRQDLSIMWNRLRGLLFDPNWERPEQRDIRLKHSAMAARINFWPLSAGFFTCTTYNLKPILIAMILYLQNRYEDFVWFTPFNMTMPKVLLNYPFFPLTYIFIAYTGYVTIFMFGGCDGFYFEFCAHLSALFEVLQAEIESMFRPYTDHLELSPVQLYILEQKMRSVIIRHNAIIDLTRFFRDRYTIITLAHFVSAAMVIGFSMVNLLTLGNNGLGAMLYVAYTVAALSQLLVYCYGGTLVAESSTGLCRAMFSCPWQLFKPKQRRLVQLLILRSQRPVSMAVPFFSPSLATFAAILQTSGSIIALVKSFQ
# T1 sequence (Q9VNB5 1-486 partner): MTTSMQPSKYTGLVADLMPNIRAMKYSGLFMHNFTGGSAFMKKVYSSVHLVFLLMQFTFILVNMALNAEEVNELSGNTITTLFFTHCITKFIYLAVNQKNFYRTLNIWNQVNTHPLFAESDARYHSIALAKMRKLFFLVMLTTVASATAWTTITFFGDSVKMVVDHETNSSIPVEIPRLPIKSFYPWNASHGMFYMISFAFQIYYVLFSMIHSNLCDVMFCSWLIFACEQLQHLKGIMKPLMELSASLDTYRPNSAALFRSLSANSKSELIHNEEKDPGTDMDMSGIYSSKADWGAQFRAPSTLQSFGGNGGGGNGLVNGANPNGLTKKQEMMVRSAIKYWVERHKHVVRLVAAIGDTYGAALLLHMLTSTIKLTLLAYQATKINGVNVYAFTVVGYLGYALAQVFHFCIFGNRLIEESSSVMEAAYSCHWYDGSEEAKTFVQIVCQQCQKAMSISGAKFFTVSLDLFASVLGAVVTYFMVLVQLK
# Method: (§1) These VUAA1 normalized ∆F values were used to compare the different receptors and ligands.
# (§2) The concentration-dependent effect of the reference ligands on their cognate cell lines was examined in more detail. Twelve different ligand concentrations were measured on each cell line in an overall 0.01 μM to 100 μM concentration range with 5 repetitions with three technical replicates each time.
# (§3) Twelve thousand to 18,000 cells were plated into each well of a black wall, transparent bottom 384-well microplate (Greiner) 48 h or 72 h before the measurements and were simultaneously treated with 1 μg/mL doxycycline. […] The plate has 24 columns, thus we could record responses in up to eight different cell lines in each plate. On the day of the experiment, the growth medium was replaced with 20 µL assay buffer/well (140 mM NaCl, 5 mM KCl, 2 mM CaCl2, 1 mM MgCl2, 5 mM HEPES-Na, 20 mM glucose, pH 7.3, 340 mOsm). […] Baseline fluorescence (F0) was recorded for 5 s, after which 7 µL VOC buffer (140 mM NaCl, 5 mM KCl, 2 mM CaCl2, 1 mM MgCl2, 5 mM HEPES-Na, 31 mM glucose, 0.1% DMSO, pH 7.3, 340 mOsm) was injected into each well in one row and the fluorescence response was recorded for an additional 30 s, at a rate of one read/sec. VOC solutions (VOC buffer with 4× concentration of the final measured VOC concentration, 9 µL/well was injected) were measured on the same wells in a second round with the same protocol. Each individual concentration of a specific VOC sample was recorded in three wells for the same cell line on the same microplate. The raw data were exported in xls file format, F0 and FMAX values, and the fluorescence intensity changes (∆F) were calculated in Excel (Microsoft) (Supplementary file Data summary.xlsx) using the following equation: ΔF=FMAX-F0/F0 (see also Fig. 1C). On each plate, we recorded the response of each cell line to 50 µM VUAA1. The average of these ∆F values of each cell line were used to calculate the VUAA1-normalized values for the rest of the plate, by dividing VOC response ∆F values by the average VUAA1 response ∆F value of the corresponding OR cell line. Each VOC-OR combination was measured three times as technical replicates. […] The average of these replicates were used as one ∆F and VUAA1-normalized ∆F in the following analysis.
# (§4) In the next rows we tested the reference VOCs (or other VOCs known to activate the corresponding cell lines), in order to test if all cell lines are responsive. The remaining rows were used to test VOCs with unknown effect.
# (§5) The recorded FMAX, F0, ∆F, VUAA1-normalized ∆F values, as well as the OR name, the name of the tested sample, and the final concentration for each well were copied into supplementary file Data summary.xlsx, that was used to summarize all the plates recorded. Here, the averages of the measurements were calculated for each receptor-VOC-concentration combination.
# Drosophila OR13a = biological target: T2, Drosophila OR13a (Drosophila melanogaster, UniProt Q9VXL0); assay: Calcium ion fluorescence (GCaMP6) assay, OR13a stable HEK293 cell line; type: cell-based; details: for DF norm AVERAGE OR13a: normalized fluorescence change, values below 0.05 threshold given as 0
# T2 construct: expressed in transfected cells
# T2 sequence (Q9VXL0 1-418): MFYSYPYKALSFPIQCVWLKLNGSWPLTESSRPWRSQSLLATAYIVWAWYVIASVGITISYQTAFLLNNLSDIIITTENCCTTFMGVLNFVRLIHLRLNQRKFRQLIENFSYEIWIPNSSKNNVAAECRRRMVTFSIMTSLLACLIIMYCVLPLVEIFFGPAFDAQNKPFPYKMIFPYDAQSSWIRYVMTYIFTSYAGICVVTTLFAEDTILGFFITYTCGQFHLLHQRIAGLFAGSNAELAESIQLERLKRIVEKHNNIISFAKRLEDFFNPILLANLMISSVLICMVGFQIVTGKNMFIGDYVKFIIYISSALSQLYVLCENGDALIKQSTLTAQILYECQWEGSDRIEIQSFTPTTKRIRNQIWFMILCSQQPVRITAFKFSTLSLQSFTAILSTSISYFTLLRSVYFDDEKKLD
# T2 sequence (Q9VNB5 1-486 partner): T1 sequence (Q9VNB5 1-486 partner)
# Method: as §1, §2, §3, §4, §5
smiles,measurement,setting,value
C=CC(O)CCCCC (stereo not drawn) [1-octen-3-ol],DF norm AVERAGE OR10a,Drosophila OR10a,0
same,activation at 1 µM,"Drosophila OR10a; HEK293, 1 μM VOC, 50 μM VUAA1 = 1, responses not exceeding 0.05 considered 0, read-out: OR10a Average response (VUAA1-normalized)",0%
same,activation at 10 µM,"Drosophila OR10a; HEK293, 10 μM VOC, 50 μM VUAA1 = 1, responses not exceeding 0.05 considered 0, read-out: OR10a Average response (VUAA1-normalized)",2.34%
same,activation at 100 µM,"Drosophila OR10a; HEK293, 100 μM VOC, 50 μM VUAA1 = 1, responses not exceeding 0.05 considered 0, read-out: OR10a Average response (VUAA1-normalized)",4.52%
same,activation at 1 µM,"Drosophila OR10a; HEK293, read-out: OR10a response (VUAA1-normalized response), VOC concentration 1 μM",0%
same,activation at 10 µM,"Drosophila OR10a; HEK293, read-out: OR10a response (VUAA1-normalized response), VOC concentration 10 μM",0%
same,activation at 100 µM,"Drosophila OR10a; HEK293, read-out: OR10a response (VUAA1-normalized response), VOC concentration 100 μM",0%
same,EC50,"Drosophila OR13a; AVERAGE EC50, the 12th table, corresponds to average EC50, given with 95% confidence interval",1440 nM
same,EC50,"Drosophila OR13a; EC50, AVERAGE of replicate fits, the 12th table, N 5",1440 nM
same,EC50,"Drosophila OR13a; EC50, AVERAGE of replicate fits, the 12th table, arithmetic average, N 5",1630 nM
same,EC50,"Drosophila OR13a; EC50, OR13a cell line, fitted Hill equation, Hill coefficient constrained to 1, maximal response max 1",1440 nM
same,EC50,"Drosophila OR13a; EC50, fitted average curve, the 12th table, fit to the average curve, n 0.854956",1410 nM
same,EC50,"Drosophila OR13a; EC50, fitted parameter per biological replicate, the 12th table, OR13a D-R 1-octen-3-ol, individual replicate fits, MIN 0, n 1",2370 nM and 2300 nM and 753 nM and 1970 nM and 761 nM
same,EC50,"Drosophila OR13a; EC50, fitted parameter per biological replicate, the 12th table, individual replicate fits",2370 nM and 2300 nM and 753 nM and 1970 nM and 761 nM
same,activation at 1 µM,"Drosophila OR13a; HEK293, read-out: OR13a Average response (VUAA1-normalized), 1 μM VOC, 50 μM VUAA1 = 1, responses not exceeding 0.05 considered 0",31%
same,activation at 10 µM,"Drosophila OR13a; HEK293, read-out: OR13a Average response (VUAA1-normalized), 10 μM VOC, 50 μM VUAA1 = 1, responses not exceeding 0.05 considered 0",41%
same,activation at 100 µM,"Drosophila OR13a; HEK293, read-out: OR13a Average response (VUAA1-normalized), 100 μM VOC, 50 μM VUAA1 = 1, responses not exceeding 0.05 considered 0",38%
same,activation at 1 µM,"Drosophila OR13a; HEK293, read-out: OR13a response (VUAA1-normalized response), VOC concentration 1 μM",31%
same,activation at 10 µM,"Drosophila OR13a; HEK293, read-out: OR13a response (VUAA1-normalized response), VOC concentration 10 μM",41%
same,activation at 100 µM,"Drosophila OR13a; HEK293, read-out: OR13a response (VUAA1-normalized response), VOC concentration 100 μM",38%
same,Emax,"Drosophila OR13a; HEK293, read-out: VUAA1 normalized MAX response",46%
same,DF norm AVERAGE OR13a,Drosophila OR13a; concentration 1,0.3125
same,DF norm AVERAGE OR13a,Drosophila OR13a; concentration 10,0.4133
same,DF norm AVERAGE OR13a,Drosophila OR13a; concentration 100,0.3797
same,"dose-response, response per biological replicate","Drosophila OR13a; the 12th table, VOC concentration 0.15",0 (2×) and 0.1313
same,"dose-response, AVERAGE response","Drosophila OR13a; the 12th table, VOC concentration 0.15, N 3",0.04376
same,"dose-response, response per biological replicate","Drosophila OR13a; the 12th table, VOC concentration 0.3",0 (3×) and 0.1249 and 0.1272
same,"dose-response, AVERAGE response","Drosophila OR13a; the 12th table, VOC concentration 0.3, N 5",0.0504
same,"dose-response, response per biological replicate","Drosophila OR13a; the 12th table, VOC concentration 0.6",0 (2×) and 0.1801 and 0.08156 and 0.213
same,"dose-response, AVERAGE response","Drosophila OR13a; the 12th table, VOC concentration 0.6, N 5",0.09494
same,"dose-response, response per biological replicate","Drosophila OR13a; the 12th table, VOC concentration 1.25",0.2071 and 0.2793 and 0.1886 and 0.3516
same,"dose-response, AVERAGE response","Drosophila OR13a; the 12th table, VOC concentration 1.25, N 4",0.2566
same,"dose-response, response per biological replicate","Drosophila OR13a; the 12th table, VOC concentration 2.5",0.2646 and 0.1888 and 0.4175 and 0.197 and 0.3823
same,"dose-response, AVERAGE response","Drosophila OR13a; the 12th table, VOC concentration 2.5, N 5",0.2901
same,"dose-response, response per biological replicate","Drosophila OR13a; the 12th table, VOC concentration 5",0.42 and 0.3195 and 0.4159 and 0.2978 and 0.4731
same,"dose-response, AVERAGE response","Drosophila OR13a; the 12th table, VOC concentration 5, N 5",0.3853
same,"dose-response, response per biological replicate","Drosophila OR13a; the 12th table, VOC concentration 10",0.4322 and 0.4316 and 0.4215 and 0.2626 and 0.4446
same,"dose-response, AVERAGE response","Drosophila OR13a; the 12th table, VOC concentration 10, N 5",0.3985
same,"dose-response, response per biological replicate","Drosophila OR13a; the 12th table, VOC concentration 20",0.4616 and 0.4143 and 0.5545 and 0.335 and 0.5659
same,"dose-response, AVERAGE response","Drosophila OR13a; the 12th table, VOC concentration 20, N 5",0.4662
same,"dose-response, response per biological replicate","Drosophila OR13a; the 12th table, VOC concentration 40",0.4507 and 0.4868 and 0.5125 and 0.286 and 0.5426
same,"dose-response, AVERAGE response","Drosophila OR13a; the 12th table, VOC concentration 40, N 5",0.4557
same,"dose-response, response per biological replicate","Drosophila OR13a; the 12th table, VOC concentration 60",0.3021 and 0.4978 and 0.4725 and 0.5843
same,"dose-response, AVERAGE response","Drosophila OR13a; the 12th table, VOC concentration 60, N 4",0.4642
same,"dose-response, response per biological replicate","Drosophila OR13a; the 12th table, VOC concentration 80",0.4797 and 0.3236 and 0.407 and 0.4017 and 0.4897
same,"dose-response, AVERAGE response","Drosophila OR13a; the 12th table, VOC concentration 80, N 5",0.4203
same,"dose-response, response per biological replicate","Drosophila OR13a; the 12th table, VOC concentration 100",0.3778 and 0.3442 and 0.2898 and 0.4501
same,"dose-response, AVERAGE response","Drosophila OR13a; the 12th table, VOC concentration 100, N 4",0.3654
same,AVERAGE MAX,"Drosophila OR13a; the 12th table, average of replicate fits, N 5",0.459
same,"MAX, fitted average curve","Drosophila OR13a; the 12th table, fit to the average curve, n 0.854956",0.4618
same,"MAX, fitted parameter per biological replicate","Drosophila OR13a; the 12th table, individual replicate fits",0.5125 and 0.4135 and 0.4717 and 0.37 and 0.5273
